According to PMC9981747, “A covalent BTK ternary complex compatible with targeted protein degradation” (Nature Communications, 2023):
Where “and” joins values, the source holds several entries; their conditions need not be identical. Equal values may be shown once. Read-outs that look alike come from different tables or passages of the source.

Legend:
[1] = target: T1, BTK^KD and cIAP1^BUCR1 ternary complex (Homo sapiens, UniProt Q06187+Q13490); test: Biolayer interferometry (BLI) ternary complex formation; format: binding
T1 construct: BTK^KD (aa384-659) were expressed and purified as previously described; cIAP1^BUCR1 (aa260-618), and BTK^KD (aa384-659) were expressed and purified as previously described; biotin / BAP (only when BTK^KD~BCCov was the sensor ligand); made in house; host or cells: BTK^KD: SF9 insect cells; cIAP1^BUCR1: E. coli BL21-DE3
Experimental: We performed biolayer interferometry (BLI) with an OctetRED384 system (Data Acquisition Version 9.0.0.49) as described previously. […] Ligands were loaded onto streptavidin biosensors (ForteBio, 18-5019) for 120 s, washed in Octet buffer for 200 s, quenched with 50 μM d-biotin (Invitrogen) for 120 s, and washed in Octet buffer for 500 s. […] Excess compound was desalted using a Zeba Spin Desalting Column (Cat. #89882). The preformed binary complex was then dipped into varying concentrations of analyte diluted in Octet buffer for 300 s to determine kon, followed by a wash for 500 s to determine koff. Binding kinetics were calculated and plotted using BiaEvaluation Software (version 4.1.1). Cooperativity (α) was determined by calculating the ratio of binary Kd to ternary complex Kd.

[2] = target: T2, BTK^T474I-C481S (Homo sapiens, UniProt Q06187+Q13490, C481S/T474I); test: Expi293 dose-dependent degradation of BTK double mutant; format: cell-based; settings: Expi293 with cIAP1^FL
T2 construct: we used a full-length BTK (aa1-659) with a C terminal Tobacco Etch Virus protease (TEV) site; expressed in transfected cells; host or cells: Expi293 (HEK293)
Experimental: (§1) Gibco Expi293 cell line Transfection Kit (Cat.# A14524) was cultured according to the manufacturers conditions. Cells were grown at 37 °C with 5% CO2 to 4 × 10^6 cells/mL using an orbital shaker set to 95 RPM. Next cells were split to 2 × 10^6 cells/mL and transfected with plasmid DNA at a 1 µg/mL final concentration in Optimem (Gibco 31985070) using the Expifectamine 293 transfection reagent according to manufacturer’s conditions. After approximately 18 h, enhancers 1 and 2 (provided with kit). Viability was typically about 85%. When cIAP1^FL was transfected, it was detected via α-cIAP1 antibody there was typically some autoubiquitination detected, and thus often appeared as a laddered or smeared band via western blotting. When BTK^FL variants were transfected, they were detected using anti-BTK antibody (D3H5).
For dose-dependent degradation assays, cells were plated in a 24-well format and placed on a separate orbital shaker set to 115 RPM. […] Clarified lysate was harvested and quantified using a Pierce BCA Assay Kit (Cat. #23225), and 20 µg of the sample was loaded into a 4–15% Criterion TGX gel (Bio-Rad, 5678085) and transferred to a nitrocellulose membrane (Life Technologies Cat. #IB23001) using an iBlot 2 (Life Technologies Cat. #IB21001). Proteins were detected using an iBind system (Life Technologies SLF2020). […]

[3] = target: T3, BTK^FL (Homo sapiens, UniProt Q06187+Q13490); test: Expi293 dose-dependent BTK degradation (western blot), BTK^FL co-transfected with cIAP1^FL; format: cell-based; settings: for DC50: Expi293, cIAP1^FL co-transfected, ~18 h, 3 experiments, read-out: DC50 for degradation of BTK^FL (WT)
T3 construct: we used a full-length BTK (aa1-659) with a C terminal Tobacco Etch Virus protease (TEV) site; expressed in transfected cells; host or cells: Expi293 (HEK293)
Experimental: as §1
For dose-dependent degradation assays, cells were plated in a 24-well format and placed on a separate orbital shaker set to 115 RPM. Each well was treated with prescribed compound concentrations in the same manner as with THP-1 cells, with the exception of using Expifectamine 293 growth medium in place of RPMI 1640 complete media. After approximately 18 h post-treatment cells were harvested, centrifuged at 100 x g at 4 °C, washed twice with ice-cold PBS, and resuspended in RIPA buffer supplemented with a Roche protease inhibitor cocktail (Cat. #11873580001), and benzonase nuclease (Millipore-Sigma Cat# 70664). Each sample was incubated on ice for 30 min with periodic vortexing and centrifuged at 15 Kxg for 20 min. Clarified lysate was harvested and quantified using a Pierce BCA Assay Kit (Cat. #23225), and 20 µg of the sample was loaded into a 4–15% Criterion TGX gel (Bio-Rad, 5678085) and transferred to a nitrocellulose membrane (Life Technologies Cat. #IB23001) using an iBlot 2 (Life Technologies Cat. #IB21001). Proteins were detected using an iBind system (Life Technologies SLF2020). For BTK^T474I and BTK^T474I/C481S we inferred ligand entry into cells via the autoubiquitination and dose-dependent degradation of cIAP1^FL,[58].
Dose-dependent Degradation was analyzed using ImageJ (NIH, version 1.50i). Densiometric analysis was performed, normalized to DMSO signal, and analyzed using GraphPad Prism (Version 9.0.0 (121)). Non-linear fit one-phase decay analysis was used to obtain DC50 values. When we observed a hook effect, some points were excluded as part of the fit. In Supplementary Fig. 7B the complete curve was fit using GraphPad Prism non-linear regression bell-shaped curve where X is the concentration. However, using this method we were unable to obtain stable values for our DC50. SEM error was plotted for each point. When determining statistically significant differences, we used a two-sided student’s unpaired T-Test.

[4] = target: T3, BTK^FL; test: Expi293 time-dependent degradation of BTK^FL; format: cell-based; settings: 5 µM; for BTK^FL (WT) blot signal normalized to time 0: replicates
Experimental: as §1
For covalent modification detection assays, the compound was added to Expi293 cells after enhancer treatment. At each timepoint 10 mL of cells were harvested, rapidly cooled to 4 °C in an ice bath, and centrifuged at 100 x g at 4 °C for 5 min. The pellet was washed twice with ice-cold PBS, snap-frozen in liquid nitrogen, and stored at −80 °C. Each pellet was resuspended in 0.1 mL ice-cold RIPA Buffer supplemented with 40 µM BCNC (to outcompete any remaining BCCov), protease inhibitor, and benzonase, and sonicated with 10 brief blasts at power 20. Lysate was centrifuged at 15 K x g for 20 min at 4 °C and prepared for western blotting as detailed above. When samples were evaluated for covalent adduct formation, a purification step was required. Briefly, the ~1 mL of clarified lysate was added to 9 mL of FLAG binding buffer (25 mM HEPES 7.5, 300 mM NaCl, 10% glycerol). These samples were incubated with 250 µL of anti-FLAG M2 affinity resin (Millipore-Sigma Cat. # A2220) for 3 h at 4 °C with gentle nutation. Samples were washed via gravity column filtration and eluted with 0.2 mg/ml FLAG Peptide (DYKDDDDK, CPC Scientific Peptide Company). Each sample was concentrated to 0.1 mg/mL using an Amicon Ultra-15 Centrifugal filter with a 50 kDa MWCO (Millipore-Sigma Cat. # UFC905024). Details on mass spectrometry analysis are below.

T3 sequence (Q06187 whole entry, the tested form may be a part): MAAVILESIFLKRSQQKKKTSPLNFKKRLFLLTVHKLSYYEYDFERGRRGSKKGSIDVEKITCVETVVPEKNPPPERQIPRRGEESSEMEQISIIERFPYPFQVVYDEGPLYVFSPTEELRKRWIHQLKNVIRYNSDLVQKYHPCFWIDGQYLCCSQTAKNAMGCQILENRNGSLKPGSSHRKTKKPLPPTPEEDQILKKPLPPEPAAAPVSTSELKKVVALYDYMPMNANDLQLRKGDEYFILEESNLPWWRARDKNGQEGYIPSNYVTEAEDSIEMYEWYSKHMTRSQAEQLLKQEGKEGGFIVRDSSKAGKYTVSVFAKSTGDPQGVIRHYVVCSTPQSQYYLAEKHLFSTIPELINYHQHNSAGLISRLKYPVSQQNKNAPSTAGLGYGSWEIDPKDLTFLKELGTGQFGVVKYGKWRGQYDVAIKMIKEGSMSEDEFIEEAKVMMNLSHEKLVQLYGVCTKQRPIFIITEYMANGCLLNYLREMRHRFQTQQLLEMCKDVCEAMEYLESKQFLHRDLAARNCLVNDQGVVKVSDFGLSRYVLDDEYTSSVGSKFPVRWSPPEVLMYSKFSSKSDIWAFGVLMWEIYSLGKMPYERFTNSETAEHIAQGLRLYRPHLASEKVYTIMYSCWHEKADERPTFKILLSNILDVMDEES
T3 sequence (Q13490 whole entry, the tested form may be a part): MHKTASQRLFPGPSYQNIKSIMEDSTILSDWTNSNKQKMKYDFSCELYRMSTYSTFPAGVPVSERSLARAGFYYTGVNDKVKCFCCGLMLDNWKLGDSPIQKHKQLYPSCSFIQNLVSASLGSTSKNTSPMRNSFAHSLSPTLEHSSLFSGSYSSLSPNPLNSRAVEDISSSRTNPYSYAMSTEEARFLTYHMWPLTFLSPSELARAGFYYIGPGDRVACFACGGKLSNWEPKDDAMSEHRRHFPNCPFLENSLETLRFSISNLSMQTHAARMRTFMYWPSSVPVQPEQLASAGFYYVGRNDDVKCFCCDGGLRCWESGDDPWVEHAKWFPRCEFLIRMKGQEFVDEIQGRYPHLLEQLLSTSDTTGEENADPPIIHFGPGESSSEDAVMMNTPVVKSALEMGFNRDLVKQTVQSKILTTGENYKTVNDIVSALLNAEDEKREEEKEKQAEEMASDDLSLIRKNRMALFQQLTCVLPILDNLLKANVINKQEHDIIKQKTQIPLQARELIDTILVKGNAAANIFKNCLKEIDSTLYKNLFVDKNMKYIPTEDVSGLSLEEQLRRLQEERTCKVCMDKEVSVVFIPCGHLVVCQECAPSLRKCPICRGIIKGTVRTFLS
T1 sequence (Q06187 384-659): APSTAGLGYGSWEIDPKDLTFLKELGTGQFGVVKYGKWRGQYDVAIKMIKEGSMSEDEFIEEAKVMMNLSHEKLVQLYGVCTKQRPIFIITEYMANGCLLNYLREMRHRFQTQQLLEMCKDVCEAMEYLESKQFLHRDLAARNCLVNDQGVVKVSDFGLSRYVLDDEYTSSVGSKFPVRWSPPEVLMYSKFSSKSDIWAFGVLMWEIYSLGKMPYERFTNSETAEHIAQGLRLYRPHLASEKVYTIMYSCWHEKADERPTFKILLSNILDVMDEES
T1 sequence (Q13490 260-618): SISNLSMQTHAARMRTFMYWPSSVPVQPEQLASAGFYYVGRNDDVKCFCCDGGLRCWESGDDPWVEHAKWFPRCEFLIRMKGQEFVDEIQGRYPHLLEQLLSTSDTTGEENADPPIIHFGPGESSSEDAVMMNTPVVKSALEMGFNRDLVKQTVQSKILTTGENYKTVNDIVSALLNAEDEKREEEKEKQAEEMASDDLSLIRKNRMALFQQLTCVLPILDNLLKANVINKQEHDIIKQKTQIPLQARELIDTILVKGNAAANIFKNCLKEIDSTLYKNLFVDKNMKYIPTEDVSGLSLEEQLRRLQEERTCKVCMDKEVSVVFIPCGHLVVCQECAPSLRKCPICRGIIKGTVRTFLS
T2 sequence (Q06187 whole entry T474I/C481S, the tested form may be a part): as the sequence (Q06187 whole entry, the tested form may be a part) above, with T474I, C481S counted along it
T2 sequence (Q13490 whole entry, the tested form may be a part): as the sequence (Q13490 whole entry, the tested form may be a part) above

| Structure (SMILES) | WT BTK blot signal normalized to DMSO ([3]; 0.004883 uM, replicates) | WT BTK blot signal normalized to DMSO ([3]; 0.009766 uM, replicates) | WT BTK blot signal normalized to DMSO ([3]; 0.019531 uM, replicates) | WT BTK blot signal normalized to DMSO ([3]; 0.039063 uM, replicates) | WT BTK blot signal normalized to DMSO ([3]; 0.078125 uM, replicates) | WT BTK blot signal normalized to DMSO ([3]; 0.15625 uM, replicates) | WT BTK blot signal normalized to DMSO ([3]; 0.3125 uM, replicates) | WT BTK blot signal normalized to DMSO ([3]; 0.625 uM, replicates) | WT BTK blot signal normalized to DMSO ([3]; 1.25 uM, replicates) | WT BTK blot signal normalized to DMSO ([3]; 2.5 uM, replicates) | WT BTK blot signal normalized to DMSO ([3]; 5 uM, replicates) | DC50 [3] | BTK^FL (WT) blot signal normalized to time 0 ([4]; 0.5 h) | BTK^FL (WT) blot signal normalized to time 0 ([4]; 1 h) | BTK^FL (WT) blot signal normalized to time 0 ([4]; 2 h) | BTK^FL (WT) blot signal normalized to time 0 ([4]; 3.5 h) | BTK^FL (WT) blot signal normalized to time 0 ([4]; 5.5 h) | BTK^FL (WT) blot signal normalized to time 0 ([4]; 7 h) | BTK^FL (WT) blot signal normalized to time 0 ([4]; 17 h) | further results |
| --- | --- | --- | --- | --- | --- | --- | --- | --- | --- | --- | --- | --- | --- | --- | --- | --- | --- | --- | --- | --- |
| CNC(C)C(=O)NC(C(=O)N1CC(NC(=O)COCCN2CCN(CC=CC(=O)N3CCCC(n4nc(-c5ccc(Oc6ccccc6)cc5)c5c(N)ncnc54)C3)CC2)CC1C(=O)NC1CCCc2ccccc21)C1CCCCC1 (centres unmarked) [BCCov] | 0.92 and 0.99 and 1.00 | 0.74 and 1.02 and 0.84 | 0.72 and 0.83 and 0.75 | 0.52 and 0.87 and 0.78 | 0.38 and 0.65 and 0.51 | 0.29 and 0.54 and 0.30 | 0.25 and 0.36 and 0.30 | 0.21 and 0.32 and 0.16 | 0.20 and 0.35 and 0.15 | 0.24 and 0.40 and 0.29 | 0.68 and 0.77 and 0.51 | 57.2 ± 28 nM | 0.46 and 0.65 and 0.56 | 0.26 and 0.42 and 0.40 | 0.14 and 0.25 and 0.20 | 0.0842 and 0.15 and 0.20 | 0.12 and 0.14 and 0.13 | 0.07 and 0.02 and 0.03 | 0.00 (2×) and 0.02 | Kd [1]: 72.5 nM; cooperativity factor α = Kd binary/Kd ternary ([1]; upper limit): ≤ 0.2; degradation of BTK^T474I-C481S [2]: loss of activity; BTK level normalized to untreated BTK^FL, Figure 1B Lane 2 ([3]; 5 µM, BTK^FL without cIAP1^FL, replicates): 1.30 and 0.97 and 0.91; BTK degradation without cIAP1^FL ([3]; BTK^FL transfected without cIAP1^FL (Fig. 1B, lane 2)): no observable ligand-induced BTK degradation; hook effect in degradation profile ([3]; wt BTK^FL, Expi293): partial hook effect; time at which degradation reaches a plateau ([4]; BTK^FL with cIAP1^FL): ≤ 7 h; time at which degradation starts ([4]; BTK^FL with cIAP1^FL): 30 min |
| CNC(C)C(=O)NC(C(=O)N1CC(NC(=O)COCCN2CCN(CCCC(=O)N3CCCC(n4nc(-c5ccc(Oc6ccccc6)cc5)c5c(N)ncnc54)C3)CC2)CC1C(=O)NC1CCCc2ccccc21)C1CCCCC1 (centres unmarked) [BCNC] | 0.92 and 1.00 (2×) | 0.74 and 1.02 and 0.84 | 0.72 and 0.83 and 0.75 | 0.52 and 0.87 and 0.78 | 0.38 and 0.65 and 0.51 | 0.29 and 0.54 and 0.30 | 0.25 and 0.36 and 0.30 | 0.21 and 0.32 and 0.16 | 0.2 and 0.35 and 0.15 | 0.24 and 0.40 and 0.29 | 0.68 and 0.77 and 0.51 | 149 ± 70 nM | 0.49 and 0.76 and 0.55 | 0.28 and 0.42 and 0.35 | 0.16 and 0.20 and 0.21 | 0.06 (2×) and 0.10 | 0.056 and 0.10 and 0.08 | 0.00935 and 0.01 and 0.09 | 0.00 and 0.02 (2×) | Kd ([1]; [cIAP1^BUCR1-BCNC] binary complex binding BTK^KD, read-out: Kd, ternary complex): 49.8 nM |
